The NIST ThermoML archive (doi:10.1016/j.jct.2018.02.022)

Assay: xn = mol fraction of the nth substance listed
Conditions: 92.3 kPa, Liquid; for viscosity: Concentric cylinders viscometry; for speed of sound: Frequency=3 MHz, Single path-length method; for mass density: Vibrating tube method

OCC(O)CO [glycerol] + O
Conditions | mass density [kg/m3] | speed of sound [m/s] | viscosity [mPa·s]
293.15 K, x1 = 0.011 | 1010.85 | 1505.6 | –
293.15 K, x1 = 0.021 | 1021.71 | 1526.4 | –
293.15 K, x1 = 0.0302 | 1031.17 | 1544.8 | –
293.15 K, x1 = 0.0398 | 1040.58 | 1563.4 | –
293.15 K, x1 = 0.0546 | 1054.09 | 1590.1 | –
293.15 K, x1 = 0.0651 | 1062.84 | 1608.2 | –
293.15 K, x1 = 0.0721 | 1068.61 | 1619.8 | –
293.15 K, x1 = 0.0793 | 1073.97 | 1630.9 | –
293.15 K, x1 = 0.0898 | 1081.8 | 1646.9 | –
293.15 K, x1 = 0.0998 | 1088.82 | 1661.3 | 3.277
293.15 K, x1 = 0.1198 | 1101.67 | 1687.5 | –
293.15 K, x1 = 0.1549 | 1121.66 | 1727.7 | 5.662
293.15 K, x1 = 0.2024 | 1143.7 | 1770.2 | –
293.15 K, x1 = 0.2534 | 1162.81 | 1804.7 | 13.67
293.15 K, x1 = 0.2959 | 1176 | 1826.9 | 19.73
293.15 K, x1 = 0.3504 | 1190.05 | 1846.7 | 30.2
293.15 K, x1 = 0.4006 | 1200.88 | 1863.9 | 45.08
293.15 K, x1 = 0.4477 | 1209.47 | 1874.9 | 63.42
293.15 K, x1 = 0.4983 | 1217.48 | 1884.4 | 90.21
293.15 K, x1 = 0.5471 | 1224.33 | 1891.7 | 124.25
293.15 K, x1 = 0.6046 | 1231.03 | 1898.3 | 182.07
293.15 K, x1 = 0.6469 | 1235.49 | 1902.4 | 234.23
293.15 K, x1 = 0.7006 | 1240.52 | 1906.8 | 322.03
293.15 K, x1 = 0.7465 | 1244.44 | 1910.2 | 419.77
293.15 K, x1 = 0.7942 | 1248.13 | 1913.5 | 535.66
293.15 K, x1 = 0.8497 | 1251.95 | 1916.8 | 705.87
293.15 K, x1 = 0.8993 | 1254.99 | 1919.1 | 897.16
293.15 K, x1 = 0.9196 | 1256.26 | 1920.6 | –
293.15 K, x1 = 0.9322 | 1256.97 | 1921.3 | –
293.15 K, x1 = 0.9462 | 1257.78 | 1922.1 | 1125.1
293.15 K, x1 = 0.9562 | 1258.3 | 1922.6 | –
293.15 K, x1 = 0.9855 | 1259.96 | 1924.3 | –
293.15 K, x1 = 1 | 1260.73 | 1925.5 | 1408.4
298.15 K, x1 = 0.011 | 1009.54 | 1518.5 | –
298.15 K, x1 = 0.021 | 1020.28 | 1538 | –
298.15 K, x1 = 0.0302 | 1029.64 | 1555.4 | –
298.15 K, x1 = 0.0398 | 1038.94 | 1572.8 | –
298.15 K, x1 = 0.0546 | 1052.3 | 1598 | –
298.15 K, x1 = 0.0651 | 1060.94 | 1615 | –
298.15 K, x1 = 0.0721 | 1066.65 | 1625.8 | –
298.15 K, x1 = 0.0793 | 1071.95 | 1636.2 | –
298.15 K, x1 = 0.0898 | 1079.69 | 1651.3 | –
298.15 K, x1 = 0.0998 | 1086.64 | 1664.9 | 2.631
298.15 K, x1 = 0.1198 | 1099.36 | 1689.5 | –
298.15 K, x1 = 0.1549 | 1119.16 | 1727.3 | 4.416
298.15 K, x1 = 0.2024 | 1141.01 | 1767.4 | –
298.15 K, x1 = 0.2534 | 1159.99 | 1800 | 10.4
298.15 K, x1 = 0.2959 | 1173.1 | 1821 | 14.91
298.15 K, x1 = 0.3504 | 1187.09 | 1841.6 | 22.91
298.15 K, x1 = 0.4006 | 1197.86 | 1856.1 | 33.73
298.15 K, x1 = 0.4477 | 1206.42 | 1866.5 | 46.86
298.15 K, x1 = 0.4983 | 1214.4 | 1875.4 | 65.72
298.15 K, x1 = 0.5471 | 1221.23 | 1882.4 | 89.21
298.15 K, x1 = 0.6046 | 1227.93 | 1888.6 | 126.31
298.15 K, x1 = 0.6469 | 1232.4 | 1892.3 | 163.54
298.15 K, x1 = 0.7006 | 1237.44 | 1896.3 | 220.14
298.15 K, x1 = 0.7465 | 1241.37 | 1899.4 | 283.91
298.15 K, x1 = 0.7942 | 1245.06 | 1902.3 | 358.24
298.15 K, x1 = 0.8497 | 1248.81 | 1905.2 | 463.79
298.15 K, x1 = 0.8993 | 1251.84 | 1907 | 584.38
298.15 K, x1 = 0.9196 | 1253.1 | 1908.2 | –
298.15 K, x1 = 0.9322 | 1253.82 | 1908.7 | –
298.15 K, x1 = 0.9462 | 1254.68 | 1909.8 | 725.78
298.15 K, x1 = 0.9562 | 1255.2 | 1909.8 | –
298.15 K, x1 = 0.9855 | 1256.87 | 1911 | –
298.15 K, x1 = 1 | 1257.65 | 1911.9 | 900.44
303.15 K, x1 = 0.011 | 1008.02 | 1529.5 | –
303.15 K, x1 = 0.021 | 1018.65 | 1548 | –
303.15 K, x1 = 0.0302 | 1027.91 | 1564.3 | –
303.15 K, x1 = 0.0398 | 1037.12 | 1580.8 | –
303.15 K, x1 = 0.0546 | 1050.34 | 1604.4 | –
303.15 K, x1 = 0.0651 | 1058.89 | 1620.4 | –
303.15 K, x1 = 0.0721 | 1064.55 | 1630.6 | –
303.15 K, x1 = 0.0793 | 1069.8 | 1640.5 | –
303.15 K, x1 = 0.0898 | 1077.46 | 1654.6 | –
303.15 K, x1 = 0.0998 | 1084.34 | 1667.4 | 2.405
303.15 K, x1 = 0.1198 | 1096.94 | 1690.6 | –
303.15 K, x1 = 0.1549 | 1116.57 | 1726.2 | 3.932
303.15 K, x1 = 0.2024 | 1138.25 | 1764 | –
303.15 K, x1 = 0.2534 | 1157.11 | 1794.9 | 8.807
303.15 K, x1 = 0.2959 | 1170.15 | 1814.7 | 12.34
303.15 K, x1 = 0.3504 | 1184.07 | 1834.3 | 18.45
303.15 K, x1 = 0.4006 | 1194.81 | 1848 | 26.45
303.15 K, x1 = 0.4477 | 1203.34 | 1857.9 | 36.01
303.15 K, x1 = 0.4983 | 1211.29 | 1866.4 | 49.18
303.15 K, x1 = 0.5471 | 1218.12 | 1872.9 | 65.39
303.15 K, x1 = 0.6046 | 1224.8 | 1878.8 | 91.76
303.15 K, x1 = 0.6469 | 1229.27 | 1882.3 | 116.57
303.15 K, x1 = 0.7006 | 1234.31 | 1886 | 154.03
303.15 K, x1 = 0.7465 | 1238.26 | 1888.8 | 196.75
303.15 K, x1 = 0.7942 | 1241.97 | 1891.5 | 245.24
303.15 K, x1 = 0.8497 | 1245.72 | 1894.1 | 314.35
303.15 K, x1 = 0.8993 | 1248.75 | 1895.6 | 391.29
303.15 K, x1 = 0.9196 | 1250 | 1896.7 | –
303.15 K, x1 = 0.9322 | 1250.72 | 1896.9 | –
303.15 K, x1 = 0.9462 | 1251.51 | 1897.2 | 477.66
303.15 K, x1 = 0.9562 | 1252.03 | 1897.8 | –
303.15 K, x1 = 0.9855 | 1253.69 | 1898.9 | –
303.15 K, x1 = 1 | 1254.48 | 1899.6 | 593.09
308.15 K, x1 = 0.011 | 1006.3 | 1538.8 | –
308.15 K, x1 = 0.021 | 1016.83 | 1556.4 | –
308.15 K, x1 = 0.0302 | 1026.01 | 1571.8 | –
308.15 K, x1 = 0.0398 | 1035.13 | 1587.3 | –
308.15 K, x1 = 0.0546 | 1048.23 | 1609.6 | –
308.15 K, x1 = 0.0651 | 1056.7 | 1624.6 | –
308.15 K, x1 = 0.0721 | 1062.31 | 1634.3 | –
308.15 K, x1 = 0.0793 | 1067.51 | 1643.6 | –
308.15 K, x1 = 0.0898 | 1075.13 | 1656.9 | –
308.15 K, x1 = 0.0998 | 1081.93 | 1668.9 | 2.102
308.15 K, x1 = 0.1198 | 1094.42 | 1690.8 | –
308.15 K, x1 = 0.1549 | 1113.89 | 1724.3 | 3.385
308.15 K, x1 = 0.2024 | 1135.43 | 1760.1 | –
308.15 K, x1 = 0.2534 | 1154.17 | 1789.3 | 7.44
308.15 K, x1 = 0.2959 | 1167.15 | 1808.1 | 10.25
308.15 K, x1 = 0.3504 | 1181.02 | 1826.7 | 14.92
308.15 K, x1 = 0.4006 | 1191.72 | 1839.7 | 20.87
308.15 K, x1 = 0.4477 | 1200.23 | 1849 | 27.91
308.15 K, x1 = 0.4983 | 1208.14 | 1857.6 | 37.43
308.15 K, x1 = 0.5471 | 1214.97 | 1863.4 | 49.12
308.15 K, x1 = 0.6046 | 1221.64 | 1869 | 65.97
308.15 K, x1 = 0.6469 | 1226.11 | 1872.2 | 85.3
308.15 K, x1 = 0.7006 | 1231.15 | 1875.7 | 111.01
308.15 K, x1 = 0.7465 | 1235.11 | 1878.4 | 140.28
308.15 K, x1 = 0.7942 | 1238.83 | 1880.9 | 172.49
308.15 K, x1 = 0.8497 | 1242.6 | 1883.6 | 218.85
308.15 K, x1 = 0.8993 | 1245.64 | 1884.6 | 270.27
308.15 K, x1 = 0.9196 | 1246.89 | 1885.5 | –
308.15 K, x1 = 0.9322 | 1247.62 | 1885.8 | –
308.15 K, x1 = 0.9462 | 1248.4 | 1886.3 | 326.69
308.15 K, x1 = 0.9562 | 1248.93 | 1886.6 | –
308.15 K, x1 = 0.9855 | 1250.59 | 1887.5 | –
308.15 K, x1 = 1 | 1251.38 | 1888.1 | 401.76
